Laboratory results from patent publication US6075018A, “1-[2-(substituted vinyl)]-3,4-dihydro-4-dihydro-5H-2,3-benzodiazepine derivatives” (priority 1995, dated 2000).

How the values were obtained:
[1] = tested on: hippocampal CA1 field potentials (glutamate acting mainly through AMPA receptors); conditions: known AMPA antagonist; cited from earlier work
[2] = background statement; cited from earlier work
[3] = tested on: hippocampal CA1 field potentials (glutamate acting mainly through AMPA receptors); experiment: Inhibition of CA1 field potentials in hippocampal slices (glutamatergic transmission), method of Tarnawa et al.; design: species or system rat
Method: The effects of the compounds on the glutamatergic transmission were studied in hippocampal slices applying the method of Tarnawa et al. (Acta Physiol. Hung., 79, 163, 1992). 400 μm thick slices were prepared from rat brain and maintained in a chamber of interface type under simulated […] conditions. The Schaffer collaterals were stimulated and field potentials were recorded from the pyramidal cells of the hippocampal CA1 region. The neurotransmitter involved in this process is glutamate acting mainly through AMPA receptors.

In the case of CC1=NN=C(c2ccc(N)cc2)c2cc3c(cc2C1)OCO3 [GYKI-52466, 1-(4-aminophenyl)-4-methyl-7,8-methylenedioxy-5H-2,3-benzodiazepine, reference compound], the “inhibition of the CA1 field potentials (in words)” value [1] is given as “concentration-dependently inhibits the CA1 field potentials”, the “duration of action (in words)” value [2] is given as “rather short” and the “known pharmacological activity (in words)” value [2] is given as “non-NMDA-glutamic acid antagonist having spasmolytic and antiischemic activities”. For the same compound, the “Inhibition (%) 30 minutes after drug administration” value ([3]; 50 μM, 30 minutes after drug administration) was 94.5 ± 2.07%, the “Inhibition (%) 60 minutes after drug administration” value ([3]; 50 μM, 60 minutes after drug administration) was 100 ± 0% and the “Inhibition (%) after 30 minutes wash-out” value ([3]; 50 μM, after 30 minutes wash-out, *p < 0.05 compared to the 60 minutes value) was 84.6 ± 7.37%. The “effect of 30 minutes wash-out on the inhibition” value ([3]; wash-out lasting 30 minutes vs preceding 60 minutes incubation) was “significantly smaller than that observed after the preceding incubation period”.
